{"source": "patent US20260158074A1", "about": "“A Cell Surface Marker Signature for Arrhythmogenic Pluripotent Stem Cell-Derived Cardiomyocytes” (Western Sydney Local Health District, priority 2022, published 2026)", "key": {"hPSC SCVI8": {"tested_on": "hPSC SCVI8", "assay": "DEAB-treated cardiomyocyte differentiation, RT-PCR at day 14", "type": "cell-based, human", "settings": "DEAB 1 nM-100 μM, day 3 to 7 or day 5 to 7", "protocol": "hPSC SCVI8 were cultured in Matrigel® (Corning, Cat. No. 354277) coated petri dishes in complete mTeSR™ Plus basal medium (StemCell Technologies, Cat. No. 100-0276) supplemented with 20% (v/v) mTeSR™ Plus 5× supplement (StemCell Technologies) and 0.5% (v/v) streptomycin and penicillin (ThermoFisher, Cat. No. 15140163) at 37° C. in 5% CO2. Media was changed daily and cells passaged when confluency reached approximately 80%.\nCardiomyocyte differentiation was achieved using small-molecule modulators of canonical Wnt signalling as described by Lian et al. (Lian et al. […]; 8(1):162-175), but with the addition of 1 nM, 1 μM or 100 μM 4-diethylaminobenzaldehyde (DEAB, Sigma Merck, Cat. No. D86256) at either day 3 or 5 of differentiation (FIG. 9a.). In brief, hPSC SCVI8 cells from confluent dishes were washed once with Dulbeco's Phosphate Buffered Saline (DPBS) without calcium and magnesium (Lonza, Cat. No. 17-512F), and harvested with TrypLE™ Express Enzyme (ThermoFisher, Cat. No. 12604021) and seeded at a concentration of 3.75×10^5 cells/mL in Matrigel® coated 12-well plates at a volume of 2 mL of complete mTeSR Plus basal medium and 10 μM Y-27632 (RHO/ROCK) inhibitor (StemCell Technologies, Cat. No. 072304). At day 0 of differentiation, cells were washed once using DPBS and transferred to mesoderm induction media that consisted of 6 μM CHIR99021 (GSK3 inhibitor, Tocris, Cat. No. 4423) in complete Roswell Park Memorial Institute (RPMI) 1640 medium, no glutamine (ThermoFisher, Cat. No. 21870092) supplemented with 2% (v/v) B-27 supplement, minus insulin (ThermoFisher, Cat. No. A1895601), 0.5% (v/v) streptomycin and penicillin and 1% (v/v) GlutaMAX™ supplement (ThermoFisher, Cat. No. 35050061). At day 1, CHIR99021 was removed, and cells maintained in complete RPMI minus insulin. At day 3, cells were transferred to cardiac induction media that consisted of 5 μM IWP-2 (Tocris, Cat. No. 3533) in complete RPMI minus insulin and was removed at day 5. At day 7 of differentiation, cells were maintained in complete RPMI supplemented with 2% (v/v) B-27™ Supplement (50×) (ThermoFisher, Cat. No. 17504-001), 0.5% (v/v) streptomycin and penicillin and 1% (v/v) GlutaMAX™ supplement. The media was changed every 2-3 days. Cells were harvested at day 14 for quantitative real-time polymerase chain reaction (RT-PCR).\nTotal cellular RNA was extracted using the Isolate II RNA Mini Kit (Bioline, Cat. No. BIO-52073) as per the manufacturer's instructions. Reverse transcription was performed with M-MLV Reverse Transcriptase (Promega, Cat. No. M1701) following the manufacturer's protocol. mRNA gene expression was assessed by qPCR using SensiFAST™ SYBR® No-ROX Kit (Meridian Bioscience, Cat. No. BIO-98050) on the Bio-Rad CFX384 Real-Time PCR detection system, with the following PCR conditions: 95° C. for 2 min and 40 cycles of 95° C. for 5 s, 60° C. for 10 s and 72° C. for 15 s, followed by melt curve analysis. All primers used for detection of mRNA expression are outline in Table 3. All data was normalised to the reference gene 18S and normalised to control cells (non-treated PSC-CM)."}, "[1]": {"tested_on": "PSC-CMs cultured in monolayer", "assay": "In-vitro spontaneous beat rate of PSC-CMs under anti-arrhythmic drugs", "type": "cell-based, human", "settings": "0-100 μM drug concentrations", "excerpt": "FIG. 3. […] A further 2 animals underwent sham infarction and vehicle injection. (b) Representative CMR reconstruction (created with ADAS 3D) merged with epicardial voltage map, used to choose, and annotate border and infarct zone injection sites (black circles). (c) Plot depicting the percentage of time per day each cell (red), cell and drug (blue), or vehicle (green) recipient spent in ventricular arrhythmia over course of study protocol. […] (f) Dose-dependent suppression of PSC-CM contraction rate using amiodarone (dark purple, square) and ivabradine (light purple, circle) in vitro (0-100 μM drug concentrations). […] (h) Telemetry strip from representative cell and anti-arrhythmic recipient showing predominantly sinus rhythm with occasional ventricular ectopic beat. (i-k) Arrythmia parameters from day 0 to day 28 for each subject, grouped by treatment allocation (presented as mean±SEM). […]\nGiven the automatic mechanism for PSC-CM EAs, the inventors hypothesised that suppressing the rate of graft automaticity below that of the native sinus node would reduce arrhythmia burden. […] To further interrogate this finding the beat rates of sinus rhythm and EAs for each animal were analysed."}, "[2]": {"tested_on": "H9 human embryonic stem cell line containing a gCaMP6f reporter, differentiating aggregates", "assay": "Bioreactor PSC-CM differentiation with retinoic acid signalling activated: cTnT flow cytometry, qPCR, scRNA-seq, beat frequency", "type": "cell-based", "protocol": "The H9 cell line containing the gCaMP6f fluorescent calcium reporter was used for all experiments (provided by University of Queensland StemCore facility). Each production run was started from a frozen working cell bank (WCB) cryovial, which was expanded for 8 days in monolayer on matrigel (Corning) using the commercially available medium mTeSR™ Plus (Stem Cell Technologies) (FIG. 1). On Day −3, cells were inoculated at a density of 2.5-3.0×10^5 cells/mL in mTeSR 3D supplemented with 10 μM Y-27632 (TOCRIS Bioscience) and 10 ug/mL of a thermoresponsive polymer pNIPAM conjugated to fibronectin (Chen, X. et al. Tissue Eng Part C Methods 24, 146-157) to form aggregates. A DASbox (Eppendorf) stirred tank bioreactor system was used for aggregate formation and suspensions controlled at 37.2° C., pH 7.2, and 30% DO. At day −1, rapamycin (Merck) was added to a final concentration of 5 nM to enhance survival during differentiation. […]\nThe expression of cTnT was measured on a Cytoflex Flow Cytometer (Beckman Coulter). […]\nReactions were performed in technical triplicate. Quantitative PCR was performed on the BioRad CFX96 Real-Time PCR Detection System with standard cycling parameters described in the master mix protocol. […] Fold difference in expression was calculated using the comparative CT formula, using GAPDH cDNA from a reference sample. […]"}}}
{"smiles": "CCN(CC)c1ccc(C=O)cc1", "note": "[DEAB, 4-diethylaminobenzaldehyde]", "values": [{"measurement": "expression level of IRX4", "setting": "hPSC SCVI8; RT-PCR day 14", "value": "no significant difference"}, {"measurement": "expression level of KCNJ3", "setting": "hPSC SCVI8; RT-PCR day 14", "value": "significant lower expression levels"}, {"measurement": "expression level of MYH7", "setting": "hPSC SCVI8; RT-PCR day 14", "value": "no significant difference"}, {"measurement": "expression level of MYL2v", "setting": "hPSC SCVI8; RT-PCR day 14", "value": "no significant difference"}, {"measurement": "expression level of SHOX2", "setting": "hPSC SCVI8; RT-PCR day 14", "value": "significant lower expression levels"}, {"measurement": "expression level of cTnT", "setting": "hPSC SCVI8; RT-PCR day 14, relative to 18S, versus non-treated PSC-CM", "value": "no significant difference"}]}
{"smiles": "COc1cc2c(cc1OC)CC(=O)N(CCCN(C)C[C@H]1Cc3cc(OC)c(OC)cc31)CC2", "note": "[Ivabradine]", "values": [{"measurement": "spontaneous beat rate of PSC-CMs", "setting": "[1]", "value": "dose-dependent reduction in the spontaneous beat rate"}]}
{"smiles": "CC1=C(/C=C/C(C)=C/C=C/C(C)=C/C(=O)O)C(C)(C)CCC1", "note": "[Retinoic acid, retinoic acid]", "values": [{"measurement": "cTnT expression", "setting": "[2]; RA signalling activated day 2 to day 6, n=12, control differentiations in parallel 83.6±7.0%", "value": "62.4±33.1", "unit": "%"}, {"measurement": "rate of spontaneous contraction of aggregates", "setting": "[2]; day 15 before aggregate dissociation, n=6, control 14.2±5.5 b.p.m", "value": "50.7±16.8", "unit": "b.p.m"}]}
{"smiles": "CCCCc1oc2ccccc2c1C(=O)c1cc(I)c(OCCN(CC)CC)c(I)c1", "note": "[amiodarone]", "values": [{"measurement": "spontaneous beat rate of PSC-CMs", "setting": "[1]", "value": "dose-dependent reduction in the spontaneous beat rate"}]}
